The assay can be described thus: Unspecified test of effectiveness of AII fragments.

His-Pro-Phe [AII(6-8)]: the effectiveness entry is “not to be effective”.
With “Tyr-Ile-His-Pro-Phe (YIHPF; printed: Tyr-Ile-His-Pro-Phe) [AII(4-8)]” the entry was “not to be effective”.

Values taken from patent US20090227507A1, “Angiotensin (1-7) Dosage Forms and Uses Thereof” (UNIVERSITY OF SOUTHERN CALIFORNIA, priority 2008, published 2009).
